Results taken from article PMC11477792, “Fabrication of a Heptapeptide-Modified Poly(glycidyl Methac-Rylate) Nanosphere for Oriented Antibody Immobilization and Immunoassay” (Molecules, 2024).
Entries after “also recorded” stand apart in the source; their conditions may differ.

Legend:
Fc region of IgG = conditions: ref [17],[21] (b5); ref [15],[16],[17]; cited from earlier work
From the text: (§1) Nowadays, numerous synthetic peptides are designed to specifically recognize and bind the conserved fragment crystallizable (Fc) region of IgG [18, 19], which is one of the most widely utilized types of antibodies in bioanalytical analysis. The Fc binding peptides made excellent exposure of the fragment antigen binding (Fab) region of IgG and thus maintained an easy approachability to the antigen-binding sites of the immobilized antibodies.

IgG = conditions: ref [22]; cited from earlier work
From the text: as §1

[1] = target: heptapeptide HWRGWVC (HC7) coupled to poly(glycidyl methacrylate) nanospheres (PGMA-HC7); test: batch adsorption isotherm (Langmuir fit); bovine IgG 0.4-4 mg/mL added to PGMA-HC7 nanosphere suspension, physiological buffer, 37 °C, 5 min; supernatant IgG read at 280 nm after centrifugation, adsorbed amount by mass balance

For “HWRGWV [hexapeptide ligand that could specifically recognize the Fc region of the antibody]”, the “Fc selectivity relative to protein A / protein G” value (Fc region of IgG) is given as “comparable to protein A but not comparable to protein G; also recorded: comparable to protein A”.
In the case of “HWRGWVC [HC7, heptapeptide ligand HWRGWVC, 95% purity, synthesized by GL Biochem Ltd]”, the “affinity for IgG relative to HWRGWV” value (IgG) is listed as “two orders of magnitude stronger”.
With “bovine immunoglobulin G (IgG) (antibody)” the Kd [1] was 5.8 µM.
